US4614731A, “Peptide having immunopotentiating activity similar to thymosin alpha1” (Hoffmann-La Roche Inc., priority 1985, dated 1986)
Ends that are not written are not given here.

Key:
[1] = tested on: T cell differentiation and function; assay: in vitro and in vivo assay systems designed to measure T cell differentiation and function
Candida albicans = assay: Growth of Candida albicans in C3 H/HeJ mice treated daily i.p. with thymic derivatives; assay type: in vivo; conditions: for Protection in comparison with control mice: daily i.p. graded doses beginning two days before i.v. challenge with 4×10^4 cells of C. albicans; for C. albicans cell count: average number of organisms in left kidneys of nine mice, days 7, 14 and 21 after infection; for Most active (optimum) daily dose: i.p., resistance to infection with C. albicans; for Potency relative to fraction 5 in ability to induce resistance to infection with C. albicans: ratio of optimum doses
From the text: The biological activity of thymosin alpha1 can be determined by utilizing in vivo assays known in the art. Thus, for example, inbred strains of mice are known to vary in their susceptability to infection with C. albicans. Thus, mice of such strains as C3 H/HeJ or CBA/CaJ are highly susceptible to infection, whereas mice of such strains as C57 Bl/10SNJ or C57 Bl/KsJ were highly resistant to challenge. Since resistance to infection with C. albicans is associated with cell-mediated processes, and therefore with T-lymphocytes, thymic hormones should have an effect on the host response.
Thymosin fraction5, alpha1, or alpha11 was injected daily i.p. in graded doses into three different groups of mice, beginning two days before intravenous challenge with 4×10^4 cells of C. albicans.
Mice were treated daily with the indicated doses of thymosin fraction 5,
thymosin α1 or thymosin α11 and challenged with 4
× 10^4 cells of C. albicans two days after the start of
*Three mice from each set were sacrificed on days 7, 14 and 21 after
infection and the values represent the average number of organisms in the
left kidneys of the nine mice in each set.

[2] = tested on: T cell differentiation and function; conditions: several in vitro and in vivo assay systems; cited from earlier work

| Substance | Biological activity relative to thymosin alpha1 [1] | Protection in comparison with control mice (Candida albicans) | C. albicans cell count (Candida albicans; dose 80 ng/mouse daily i.p.) | C. albicans cell count (Candida albicans; dose 160 ng/mouse daily i.p.) | C. albicans cell count (Candida albicans; dose 320 ng/mouse daily i.p.) | C. albicans cell count (Candida albicans; dose 640 ng/mouse daily i.p.) | Most active (optimum) daily dose (Candida albicans) | Potency relative to fraction 5 in ability to induce resistance to infection with C. albicans (Candida albicans) | Activity relative to fraction 5 [2] |
| --- | --- | --- | --- | --- | --- | --- | --- | --- | --- |
| Ac-SDAAVDTSSEITTKDLKEKKEVVEEAENGREAPAN [Thymosin α11] | same quantitative and qualitative biological activity | provided protection | 4200 | 510 | 320 | 1260 | 160-320 ng per mouse | about 30 times | – |
| Thymosin α1: first active peptide isolated and characterized from thymosin fraction 5 (Ac-SDAAVDTSSEITTKDLKEKKEVVEEAEN; ends and bridges not checked; UniProt P06454 2-29, looked up) | – | provided protection | 5870 | 190 | 780 | 1410 | 160-320 ng per mouse | about 30 times | one or more orders of magnitude more active than fraction 5 |
